Paper PMC9230803, “Synthesis and Antiviral Properties against SARS-CoV-2 of Epoxybenzooxocino[4,3-b]Pyridine Derivatives” (Molecules, 2022)
Converted amounts (≈) assume the structure as drawn. Like-named read-outs stand apart in the source and are kept apart here.

Key:
[1] = test system: SARS-CoV-2 virus; assay: microbe, parasite or virus in culture; assay type: cell-based; settings: for inhibition of virus-induced CPE development / virus replication (in words): any concentration up to the tested limit of 200 µg/mL; for selectivity index (SI): IC50/EC50 in Vero E6 cells
[2] = test system: Vero E6 cells; assay: cells; assay type: cell-based; settings: Chlorocebus sabaeus, Vero C1008, upper limit of concentrations tested 200 µg/mL, read-out: IC50 (the source's name)
[3] = Severe acute respiratory syndrome coronavirus 2, Vero C1008, SARS-CoV-2 in Vero E6 cells, CPE-positive wells reduced by half, upper limit tested 200 µg/mL, read-out: EC50
[4] = cytotoxicity, uninfected Vero E6 cells, MTT
[5] = SARS-CoV-2 in Vero E6 cells, CPE-positive wells reduced by half, upper limit tested 200 µg/mL

Structure (SMILES) | EC50 [1, 3] | inhibition of virus-induced CPE development / virus replication (in words) [1] | CC50 [2, 4] | wells presenting the CPE ([1]; 6a at 0.82 μg/mL, ten wells per concentration) | wells showing the CPE ([1]; 6a at 2.47 μg/mL, ten wells per concentration) | selectivity index (SI) [1] | EC50 [1, 5] | EC50 ([1]; Severe acute respiratory syndrome coronavirus 2, Vero C1008) | CC50 ([2]; […])
CC(=NNC(=O)c1ccncc1)c1cc2c(nc1C)CC1OC2(C)Oc2ccccc21 (stereo not shown) [Compound 4a, (E,Z)-N′-(1-(2,5-dimethyl-11,12-dihydro-5H-5,11-epoxybenzo[7,8]oxocino[4,3-b]pyridin-3-yl)ethylidene)isonicotinohydrazide] | > 200 µg/mL | did not affect the development of CPE | > 200 µg/mL | – | – | – | – | – | –
Cc1nc2c(cc1C(=O)/C=C1\Nc3ccccc3NC1=O)C1(C)Oc3ccccc3C(C2)O1 (stereo not shown) [Compound 6a, (Z)-3-(2-(2,5-dimethyl-11,12-dihydro-5H-5,11-epoxybenzo[7,8]oxocino[4,3-b]pyridin-3-yl)-2-oxoethylidene)-3,4-dihydroquinoxalin-2(1H)-one] | 2.23 µg/mL (≈ 5.07 µM) | inhibition of CPE development was found | 6 µg/mL (≈ 13.7 µM) | Eight of ten | one in ten | 2.7 | 2.2 µg/mL (≈ 5.01 µM) | – | –
Cc1nc2c(cc1C(=O)/C=C(\O)C(=O)O)C1(C)Oc3ccccc3C(C2)O1 (stereo not shown) [Compound 5, (Z)-4-(2,5-dimethyl-11,12-dihydro-5H-5,11-epoxybenzo[7,8]oxocino[4,3-b]pyridin-3-yl)-2-hydroxy-4-oxobut-2-enoic acid] | – | did not affect the development of CPE | – | – | – | – | – | > 200 µg/mL | > 200 µg/mL
CC(=O)c1cc2c(nc1C)CC1OC2(C)Oc2ccccc21 (stereo not shown) [Compound 3, 1-(2,5-dimethyl-11,12-dihydro-5H-5,11-epoxybenzo[7,8]oxocino[4,3-b]pyridin-3-yl)ethan-1-one] | > 200 µg/mL | did not affect the development of CPE | 131 µg/mL (≈ 444 µM) | – | – | – | – | – | –
CCN(CC)CCOc1ccc2c(c1)C(=O)c1cc(OCCN(CC)CC)ccc1-2.Cl [Tilorone, 2,7-bis[2-(diethylamino)ethoxy]fluoren-9-one hydrochloride, reference compound] | 4.29 µg/mL | – | – | – | – | 1.8 | 4.3 µg/mL | – | –
Cc1nc2c(cc1C(=O)/C=C1\Nc3ccc([N+](=O)[O-])cc3OC1=O)C1(C)Oc3ccccc3C(C2)O1 (stereo not shown) [Compound 6c, (Z)-3-(2-(2,5-dimethyl-11,12-dihydro-5H-5,11-epoxybenzo[7,8]oxocino[4,3-b]pyridin-3-yl)-2-oxoethylidene)-7-nitro-3,4-dihydro-2H-benzo[b][1,4]oxazin-2-one] | > 200 µg/mL | did not affect the development of CPE | > 200 µg/mL | – | – | – | – | – | –
Cc1nc2c(cc1C(=O)/C=C1\Nc3ccccc3OC1=O)C1(C)Oc3ccccc3C(C2)O1 (stereo not shown) [Compound 6b, (Z)-3-(2-(2,5-dimethyl-11,12-dihydro-5H-5,11-epoxybenzo[7,8]oxocino[4,3-b]pyridin-3-yl)-2-oxoethylidene)-3,4-dihydro-2H-benzo[b][1,4]oxazin-2-one] | > 200 µg/mL | did not affect the development of CPE | > 200 µg/mL | – | – | – | – | – | –
C/C(=N\NC(=O)c1ccccc1O)c1cc2c(nc1C)CC1OC2(C)Oc2ccccc21 (stereo not shown) [Compound 4b, (E)-N′-(1-(2,5-dimethyl-11,12-dihydro-5H-5,11-epoxybenzo[7,8]oxocino[4,3-b]pyridin-3-yl)ethylidene)-2-hydroxybenzohydrazide] | > 200 µg/mL | did not affect the development of CPE | > 200 µg/mL | – | – | – | – | – | –
